Measured values reported in PubChem BioAssay (NCI).
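Results reflect a 48-hour exposure of cells in 96-well plates to compound at five concentrations. TGI: total growth inhibition.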

What was measured:
Assay in all cases: inhibition of tumour cell growth, NCI panel, 48 h
EKVX NSCLC = system: EKVX NSCLC
T-47D breast = system: T-47D breast
UO-31 renal = system: UO-31 renal
OVCAR-5 ovarian = system: OVCAR-5 ovarian
SF-295 CNS = system: SF-295 CNS
SNB-19 CNS = system: SNB-19 CNS
SK-MEL-2 melanoma = system: SK-MEL-2 melanoma
SF-268 CNS = system: SF-268 CNS
SK-MEL-5 melanoma = system: SK-MEL-5 melanoma
COLO 205 colon = system: COLO 205 colon
NCI/ADR-RES ovarian = system: NCI/ADR-RES ovarian
NCI-H460 lung = system: NCI-H460 lung
A498 renal = system: A498 renal
SN12C renal = system: SN12C renal
MALME-3M melanoma = system: MALME-3M melanoma
K-562 leukemia = system: K-562 leukemia
786-0 renal = system: 786-0 renal
NCI-H522 lung = system: NCI-H522 lung
HOP-92 NSCLC = system: HOP-92 NSCLC
MCF7 breast = system: MCF7 breast
HCT-15 colon = system: HCT-15 colon
UACC-62 melanoma = system: UACC-62 melanoma
OVCAR-8 ovarian = system: OVCAR-8 ovarian
SW-620 colon = system: SW-620 colon
HCT-116 colon = system: HCT-116 colon
LOX IMVI melanoma = system: LOX IMVI melanoma
IGROV1 ovarian = system: IGROV1 ovarian
CAKI-1 renal = system: CAKI-1 renal
HCC-2998 colon = system: HCC-2998 colon
U251 CNS = system: U251 CNS
A549 NSCLC = system: A549 NSCLC
NCI-H226 lung = system: NCI-H226 lung
MDA-MB-435 = system: MDA-MB-435
MOLT-4 leukemia = system: MOLT-4 leukemia
SR leukemia = system: SR leukemia
RXF 393 renal = system: RXF 393 renal
MDA-MB-231 breast = system: MDA-MB-231 breast
KM12 colon = system: KM12 colon
M14 melanoma = system: M14 melanoma
MDA-N = system: MDA-N
HOP-62 NSCLC = system: HOP-62 NSCLC
TK-10 renal = system: TK-10 renal
HL-60(TB) leukemia = system: HL-60(TB) leukemia
SK-OV-3 ovarian = system: SK-OV-3 ovarian
SNB-75 CNS = system: SNB-75 CNS
OVCAR-3 ovarian = system: OVCAR-3 ovarian
SK-MEL-28 melanoma = system: SK-MEL-28 melanoma
CCRF-CEM leukemia = system: CCRF-CEM leukemia
DU-145 prostate = system: DU-145 prostate
BT-549 breast = system: BT-549 breast
HT29 colon = system: HT29 colon
PC-3 prostate = system: PC-3 prostate
UACC-257 melanoma = system: UACC-257 melanoma
OVCAR-4 ovarian = system: OVCAR-4 ovarian
SF-539 CNS = system: SF-539 CNS
NCI-H23 lung = system: NCI-H23 lung
RPMI-8226 leukemia = system: RPMI-8226 leukemia
ACHN renal = system: ACHN renal
HS 578T breast = system: HS 578T breast

For Cc1nc2cc3ccccc3cc2[nH]c1=O, the TGI (EKVX NSCLC) was > 100 µM, the TGI (T-47D breast) was > 100 µM and the TGI (UO-31 renal) was > 100 µM. For the same molecule, the TGI (OVCAR-5 ovarian) was > 100 µM, the TGI (SF-295 CNS) was > 100 µM and the TGI (SNB-19 CNS) was > 100 µM. For the same molecule, the TGI (SK-MEL-2 melanoma) was > 100 µM, the TGI (SF-268 CNS) was > 100 µM and the TGI (SK-MEL-5 melanoma) was > 100 µM. The TGI (COLO 205 colon) was > 100 µM, the TGI (NCI/ADR-RES ovarian) was > 100 µM and the TGI (NCI-H460 lung) was > 100 µM. For the same molecule, the TGI (A498 renal) was > 100 µM, the TGI (SN12C renal) was > 100 µM and the TGI (MALME-3M melanoma) was > 100 µM. The TGI (K-562 leukemia) was > 100 µM, the TGI (786-0 renal) was > 100 µM and the TGI (NCI-H522 lung) was > 100 µM. For the same molecule, the TGI (HOP-92 NSCLC) was 80.2 µM, the TGI (MCF7 breast) was > 100 µM and the TGI (HCT-15 colon) was > 100 µM. For the same molecule, the TGI (UACC-62 melanoma) was > 100 µM, the TGI (OVCAR-8 ovarian) was > 100 µM and the TGI (SW-620 colon) was > 100 µM. The TGI (HCT-116 colon) was > 100 µM, the TGI (LOX IMVI melanoma) was > 100 µM and the TGI (IGROV1 ovarian) was > 100 µM. The TGI (CAKI-1 renal) was > 100 µM, the TGI (HCC-2998 colon) was > 100 µM and the TGI (U251 CNS) was > 100 µM. For the same molecule, the TGI (A549 NSCLC) was > 100 µM, the TGI (NCI-H226 lung) was > 100 µM and the TGI (MDA-MB-435) was > 100 µM. The TGI (MOLT-4 leukemia) was > 100 µM, the TGI (SR leukemia) was > 100 µM and the TGI (RXF 393 renal) was > 100 µM. For the same molecule, the TGI (MDA-MB-231 breast) was > 100 µM, the TGI (KM12 colon) was > 100 µM and the TGI (M14 melanoma) was > 100 µM. For the same molecule, the TGI (MDA-N) was > 100 µM, the TGI (HOP-62 NSCLC) was > 100 µM and the TGI (TK-10 renal) was > 100 µM. The TGI (HL-60(TB) leukemia) was > 100 µM, the TGI (SK-OV-3 ovarian) was > 100 µM and the TGI (SNB-75 CNS) was 87 µM. The TGI (OVCAR-3 ovarian) was > 100 µM, the TGI (SK-MEL-28 melanoma) was > 100 µM and the TGI (CCRF-CEM leukemia) was > 100 µM. The TGI (DU-145 prostate) was > 100 µM, the TGI (BT-549 breast) was > 100 µM and the TGI (HT29 colon) was > 100 µM. For the same molecule, the TGI (PC-3 prostate) was > 100 µM, the TGI (UACC-257 melanoma) was > 100 µM and the TGI (OVCAR-4 ovarian) was > 100 µM. The TGI (SF-539 CNS) was > 100 µM and the TGI (NCI-H23 lung) was > 100 µM.
In the case of O=c1oc2ccccc2c(O)c1C(c1ccc(-c2ccccc2)cc1)c1c(O)c2ccccc2oc1=O, the TGI (EKVX NSCLC) is reported as > 100 µM, the TGI (T-47D breast) is reported as > 100 µM and the TGI (UO-31 renal) is reported as 31.6 µM. The TGI (SNB-19 CNS) was > 100 µM, the TGI (SK-MEL-2 melanoma) was 56.8 µM and the TGI (SF-268 CNS) was 57.1 µM. The TGI (SK-MEL-5 melanoma) was 80.9 µM, the TGI (COLO 205 colon) was > 100 µM and the TGI (NCI/ADR-RES ovarian) was 58.6 µM. For the same molecule, the TGI (NCI-H460 lung) was 33.7 µM, the TGI (A498 renal) was > 100 µM and the TGI (SN12C renal) was 33.7 µM. For the same molecule, the TGI (MALME-3M melanoma) was 65 µM, the TGI (K-562 leukemia) was > 100 µM and the TGI (786-0 renal) was 81.3 µM. For the same molecule, the TGI (NCI-H522 lung) was 66.7 µM, the TGI (HOP-92 NSCLC) was 48.5 µM and the TGI (HCT-15 colon) was 40 µM. For the same molecule, the TGI (UACC-62 melanoma) was 39.5 µM, the TGI (OVCAR-8 ovarian) was 34.1 µM and the TGI (SW-620 colon) was 33.2 µM. The TGI (HCT-116 colon) was 79.1 µM, the TGI (LOX IMVI melanoma) was 44.4 µM and the TGI (IGROV1 ovarian) was > 100 µM. For the same molecule, the TGI (CAKI-1 renal) was 39.4 µM, the TGI (HCC-2998 colon) was 29 µM and the TGI (U251 CNS) was > 100 µM. The TGI (RPMI-8226 leukemia) was 95.8 µM, the TGI (ACHN renal) was 60.4 µM and the TGI (NCI-H226 lung) was 69 µM. The TGI (MDA-MB-435) was 46.9 µM, the TGI (MOLT-4 leukemia) was > 100 µM and the TGI (MDA-MB-231 breast) was 48.8 µM. The TGI (KM12 colon) was 38.1 µM, the TGI (MDA-N) was 36.1 µM and the TGI (HOP-62 NSCLC) was 55.4 µM. For the same molecule, the TGI (TK-10 renal) was > 100 µM, the TGI (HS 578T breast) was 60.4 µM and the TGI (HL-60(TB) leukemia) was 51.7 µM. The TGI (SNB-75 CNS) was > 100 µM, the TGI (OVCAR-3 ovarian) was 58.7 µM and the TGI (SK-MEL-28 melanoma) was 32 µM. The TGI (CCRF-CEM leukemia) was 93.8 µM, the TGI (DU-145 prostate) was > 100 µM and the TGI (BT-549 breast) was 40.4 µM. The TGI (HT29 colon) was 38.3 µM, the TGI (PC-3 prostate) was 56.4 µM and the TGI (UACC-257 melanoma) was > 100 µM. The TGI (OVCAR-4 ovarian) was > 100 µM and the TGI (NCI-H23 lung) was 56.8 µM.
